These results are taken from ChEMBL document CHEMBL4811255, “Antibacterial and Antifungal Polyketides from the Fungus Aspergillus unguis PSU-MF16” (J Nat Prod, 2021).

The MIC is the lowest concentration that inhibits growth of the organism. As usually defined, the IC50 is the concentration that inhibits the measured activity by half.

The structures appear in SMILES notation. ≈ marks a conversion by molar mass, not a printed value. Calls of active or inactive are those of the source. The calls are words filed in the database; no cut-off is given here.

Series [1] concerns Staphylococcus aureus. As to the kind of experiment: Antibacterial activity against methicillin-resistant Staphylococcus aureus assessed as bacterial growth inhibition incubated for 18 hrs by CLSI protocol based agar microdilution method. In kind it is functional.
Series [2] relates to Candida albicans. The experiment in a line: Antifungal activity against Candida albicans NCPF 90028 assessed as fungal growth inhibition incubated for 24 to 48 hrs by CLSI protocol based agar microdilution method. In kind it is functional. The conditions noted are these: time 24-48 hrs.
Series [3] has as its system Cryptococcus neoformans. The experiment in a line: Antifungal activity against Cryptococcus neoformans ATCC 90113 assessed as fungal growth inhibition incubated for 24 to 48 hrs by CLSI protocol based agar microdilution method. It counts as functional. As to conditions: time 24-48 hrs.
Series [4] relates to Nannizzia gypsea. The experiment in a line: Antifungal activity against Microsporum gypseum assessed as fungal growth inhibition incubated for 4 days by CLSI protocol based agar microdilution method. In kind it is functional. The conditions noted are these: 96 h, time 4 day.
The test system of series [5] is Vero. As to the kind of experiment: Cytotoxicity against African green monkey Vero cells by colorimetric assay. It counts as cell-based. As to conditions: Chlorocebus sabaeus.
In series [6] the test system is Staphylococcus aureus. As to the kind of experiment: Antibacterial activity against Staphylococcus aureus ATCC 25923 assessed as bacterial growth inhibition by CLSI protocol based assay. In kind it is functional.
Series [7] deals with Staphylococcus aureus. The experiment in a line: Antibacterial activity against methicillin-resistant Staphylococcus aureus assessed as bacterial growth inhibition by CLSI protocol based assay. In kind it is functional.
Series [8] has as its system Candida albicans. As to the kind of experiment: Antifungal activity against Candida albicans NCPF 90028 assessed as fungal growth inhibition by CLSI protocol based assay. It counts as functional.
Series [9] concerns Cryptococcus neoformans. The experiment in a line: Antifungal activity against Cryptococcus neoformans ATCC 90113 assessed as fungal growth inhibition by CLSI protocol based assay. In kind it is functional.
The subject of series [10] is Nannizzia gypsea. The experiment in a line: Antifungal activity against Microsporum gypseum assessed as fungal growth inhibition by CLSI protocol based assay. In kind it is functional.
Series [11] deals with Vero. The experiment in a line: Cytotoxicity against African green monkey Vero cells incubated for 24 hrs by MTT assay. In kind it is cell-based. As to conditions: Chlorocebus sabaeus. On the technique in general: Tetrazolium dyes change colour on reduction, which living cells bring about.
For series [12], the system named is Staphylococcus aureus. The experiment in a line: Antibacterial activity against Staphylococcus aureus ATCC 25923 assessed as bacterial growth inhibition incubated for 18 hrs by CLSI protocol based agar microdilution method. In kind it is functional.
The subject of series [13] is Candida albicans. As to the kind of experiment: Antifungal activity against Candida albicans NCPF 90028 assessed as fungal growth inhibition at 50 ug/ml by CLSI protocol based assay. It counts as functional, organism-based. The conditions noted are these: dose 50.0 µg/ml.
The test system of series [14] is Nannizzia gypsea. As to the kind of experiment: Antifungal activity against Microsporum gypseum assessed as fungal growth inhibition at 50 ug/ml by CLSI protocol based assay. It counts as functional, organism-based. The conditions noted are these: dose 50.0 µg/ml.
Series [15] has as its system Staphylococcus aureus. As to the kind of experiment: Antibacterial activity against Staphylococcus aureus ATCC 25923 assessed as bacterial growth inhibition at 50 ug/ml by CLSI protocol based assay. In kind it is functional, organism-based. As to conditions: dose 50.0 µg/ml.
Series [16] has as its system Staphylococcus aureus. As to the kind of experiment: Antibacterial activity against methicillin-resistant Staphylococcus aureus assessed as bacterial growth inhibition at 50 ug/ml by CLSI protocol based assay. The conditions noted are these: dose 50.0 µg/ml. In kind it is functional, organism-based.
The subject of series [17] is Vero. As to the kind of experiment: Cytotoxicity against African green monkey Vero cells at 50 ug/ml incubated for 24 hrs by MTT assay. It counts as cell-based. The conditions noted are these: chlorocebus sabaeus, dose 50 µg/ml.

In the case of `C/C=C(\C)c1cc(O)c(C)c2c1Oc1cc(O)c(Cl)c(C)c1C(=O)O2`, the minimal inhibitory concentration (MIC) in the series with Staphylococcus aureus [1] is 0.5 µg/mL (≈ 1.39 µM); with Candida albicans [2], 0.25 µg/mL (≈ 0.693 µM); with Cryptococcus neoformans [3] it was 0.25 µg/mL (≈ 0.693 µM); with Nannizzia gypsea [4], 1 µg/mL (≈ 2.77 µM); in the series with Staphylococcus aureus [6], 8 µg/mL (≈ 22.2 µM); in the series on Staphylococcus aureus [7], 8 µg/mL (≈ 22.2 µM). Also, the MIC in the series on Candida albicans [8] was found to be 8 µg/mL (≈ 22.2 µM); in the series with Cryptococcus neoformans [9] it was 32 µg/mL (≈ 88.7 µM); in the series with Nannizzia gypsea [10], 8 µg/mL (≈ 22.2 µM). For the same compound, the IC50 in the series on Vero [5] is 4.6 µg/mL (≈ 12.7 µM); in the series on Vero [11] it was 86 µg/mL (≈ 238 µM).

Regarding `C/C=C(\C)c1cc(OC(=O)c2c(C)cc(O)cc2O)c(C)c(O)c1C(=O)O`, the MIC in the series on Staphylococcus aureus [12] worked out at 0.25 µg/mL (≈ 0.671 µM); with Staphylococcus aureus [1], 0.5 µg/mL (≈ 1.34 µM); with Candida albicans [2] it was 0.25 µg/mL (≈ 0.671 µM); with Cryptococcus neoformans [3] it was 0.25 µg/mL (≈ 0.671 µM); in the series with Nannizzia gypsea [4] it was 1 µg/mL (≈ 2.69 µM); in the series with Staphylococcus aureus [6] it was 128 µg/mL (≈ 344 µM). Also, the MIC in the series with Staphylococcus aureus [7] stood at 128 µg/mL (≈ 344 µM); in the series on Cryptococcus neoformans [9], 32 µg/mL (≈ 85.9 µM). Also, the IC50 in the series on Vero [5] was 4.6 µg/mL (≈ 12.4 µM); with Vero [11] it was 110 µg/mL (≈ 295 µM). Besides, the result with Candida albicans [13] and in the series on Nannizzia gypsea [14] was inactive.

On to `C/C=C(\C)c1cc(O)c(C)c2c1C(=O)Oc1c(C)c(O)c(Cl)c(/C(C)=C/C)c1O2`, for which the MIC in the series on Staphylococcus aureus [12] turned out to be 0.25 µg/mL (≈ 0.603 µM); in the series with Staphylococcus aureus [1], 0.5 µg/mL (≈ 1.21 µM); with Candida albicans [2], 0.25 µg/mL (≈ 0.603 µM); with Cryptococcus neoformans [3] it was 0.25 µg/mL (≈ 0.603 µM); with Nannizzia gypsea [4] it was 1 µg/mL (≈ 2.41 µM); with Staphylococcus aureus [6] it was 0.5 µg/mL (≈ 1.21 µM). The MIC in the series with Staphylococcus aureus [7] and in the series with Cryptococcus neoformans [9] was 0.5 µg/mL (≈ 1.21 µM) throughout. In addition, the IC50 with Vero [5] was determined as 4.6 µg/mL (≈ 11.1 µM); in the series on Vero [11] it was 16 µg/mL (≈ 38.6 µM). Further, the outcome with Candida albicans [13] was inactive.

Turning to `C/C=C(\C)c1c(Cl)c(OC)c(C)c2c1Oc1c(Cl)c(O)c(Cl)c(C)c1C(=O)O2`, the MIC in the series on Staphylococcus aureus [12] amounted to 0.25 µg/mL (≈ 0.563 µM); in the series on Staphylococcus aureus [1] it was 0.5 µg/mL (≈ 1.13 µM); in the series with Candida albicans [2] it was 0.25 µg/mL (≈ 0.563 µM); in the series with Cryptococcus neoformans [3], 0.25 µg/mL (≈ 0.563 µM); in the series with Nannizzia gypsea [4], 1 µg/mL (≈ 2.25 µM); in the series on Staphylococcus aureus [6] it was 4 µg/mL (≈ 9.01 µM). The MIC in the series with Staphylococcus aureus [7] amounted to 8 µg/mL (≈ 18 µM); in the series with Cryptococcus neoformans [9] it was 16 µg/mL (≈ 36.1 µM). For the same compound, the IC50 in the series on Vero [5] worked out at 4.6 µg/mL (≈ 10.4 µM); in the series with Vero [11], 57 µg/mL (≈ 128 µM). For the same compound, the result with Candida albicans [13] and in the series with Nannizzia gypsea [14] was inactive.

With `C/C=C(\C)c1c(Cl)c(O)c(C)c2c1Oc1cc(O)c(Cl)c(C)c1C(=O)O2`, the MIC in the series with Staphylococcus aureus [12] is 0.25 µg/mL (≈ 0.633 µM); in the series on Staphylococcus aureus [1], 0.5 µg/mL (≈ 1.27 µM); in the series with Candida albicans [2], 0.25 µg/mL (≈ 0.633 µM); in the series on Cryptococcus neoformans [3] it was 0.25 µg/mL (≈ 0.633 µM); in the series on Nannizzia gypsea [4], 1 µg/mL (≈ 2.53 µM); in the series on Staphylococcus aureus [6] it was 2 µg/mL (≈ 5.06 µM). Further, the MIC is 1 µg/mL (≈ 2.53 µM) with Staphylococcus aureus [7], 200 µg/mL (≈ 506 µM) with Candida albicans [8] and 128 µg/mL (≈ 324 µM) with Cryptococcus neoformans [9]. The IC50 in the series with Vero [5] was found to be 4.6 µg/mL (≈ 11.6 µM); in the series with Vero [11], 8.9 µg/mL (≈ 22.5 µM).

As for `C/C=C(\C)c1cc(O)c(C)c(OC(=O)c2c(/C(C)=C/C)cc(O)c(C)c2O)c1` [AGONODEPSIDE A], the minimum inhibitory concentration (MIC) in the series on Staphylococcus aureus [12] is 0.25 µg/mL (≈ 0.654 µM); with Staphylococcus aureus [1], 0.25 µg/mL (≈ 0.654 µM); in the series with Cryptococcus neoformans [3], 0.25 µg/mL (≈ 0.654 µM); in the series with Staphylococcus aureus [7] it was 2 µg/mL (≈ 5.23 µM).

With `COC(=O)c1c(C)cc(O)cc1O` [METHYL ORSELLINATE], the minimum inhibitory concentration (MIC) amounted to 0.25 µg/mL (≈ 1.37 µM) in the series with Staphylococcus aureus [12]; 0.5 µg/mL (≈ 2.74 µM) with Staphylococcus aureus [1]; 0.25 µg/mL (≈ 1.37 µM) with Candida albicans [2]; 0.25 µg/mL (≈ 1.37 µM) in the series with Cryptococcus neoformans [3]; 1 µg/mL (≈ 5.49 µM) with Nannizzia gypsea [4]; 200 µg/mL (≈ 1100 µM) in the series with Cryptococcus neoformans [9]. The compound further gave an IC50 with Vero [5] of 4.6 µg/mL (≈ 25.3 µM). In addition, the outcome in the series with Staphylococcus aureus [15], in the series with Staphylococcus aureus [16], in the series on Candida albicans [13] and in the series on Nannizzia gypsea [14] was inactive. For the same compound, in the series with Vero [17], the Activity entry was “Non-Toxic”.

With `C/C=C(\C)c1c(Cl)c(O)c(C)c2c1Oc1c(Cl)c(O)c(Cl)c(C)c1C(=O)O2`, the MIC in the series with Staphylococcus aureus [12] was 0.25 µg/mL (≈ 0.582 µM); in the series on Staphylococcus aureus [1], 0.5 µg/mL (≈ 1.16 µM); with Candida albicans [2] it was 0.25 µg/mL (≈ 0.582 µM); with Cryptococcus neoformans [3] it was 0.25 µg/mL (≈ 0.582 µM); with Nannizzia gypsea [4], 1 µg/mL (≈ 2.33 µM); in the series on Staphylococcus aureus [6], 2 µg/mL (≈ 4.65 µM). Further, the MIC in the series with Staphylococcus aureus [7] came to 2 µg/mL (≈ 4.65 µM); in the series on Cryptococcus neoformans [9], 8 µg/mL (≈ 18.6 µM). The IC50 was 4.6 µg/mL (≈ 10.7 µM) in the series with Vero [5] and 110 µg/mL (≈ 256 µM) in the series on Vero [11]. For the same compound, the result with Candida albicans [13] and in the series with Nannizzia gypsea [14] was inactive.

As for `C/C=C(\C)c1c2c(c(C)c(O)c1C(=O)O)OC(=O)c1c(C)cc(O)cc1O2`, the minimum inhibitory concentration (MIC) in the series with Staphylococcus aureus [12] worked out at 0.25 µg/mL (≈ 0.675 µM); in the series with Staphylococcus aureus [1], 0.5 µg/mL (≈ 1.35 µM); in the series on Candida albicans [2] it was 0.25 µg/mL (≈ 0.675 µM); in the series on Cryptococcus neoformans [3] it was 0.25 µg/mL (≈ 0.675 µM); with Nannizzia gypsea [4], 1 µg/mL (≈ 2.7 µM); in the series with Cryptococcus neoformans [9], 200 µg/mL (≈ 540 µM). In addition, in the series with Vero [5], the IC50 came to 4.6 µg/mL (≈ 12.4 µM). In addition, the outcome with Staphylococcus aureus [15], in the series on Staphylococcus aureus [16], in the series with Candida albicans [13] and with Nannizzia gypsea [14] was inactive. The Activity entry in the series on Vero [17] is listed as “Non-Toxic”.
